Results as given in the Bradley open melting point set (2014).

Row | Compound | melting point [°C]
1 | CN1C(=O)C(=NNc2c(Br)cc(Br)cc2Br)C(=O)N(C)C1=O | 166
2 | CCOC(=O)[C@@H]1CC[C@H](C(C)=O)[C@@H]1NC(=O)OC(C)(C)C | 110
3 | CCCCCCCCOc1cc(N(NC(=O)OC(C)(C)C)C(=O)OC(C)(C)C)cc(OCCCCCCCC)c1OCCCCCCCC | 73.5
4 | CCCCCCCCCCSc1cc(N(NC(=O)OC(C)(C)C)C(=O)OC(C)(C)C)cc(SCCCCCCCCCC)c1SCCCCCCCCCC | 50.5
5 | CCCCCCCCOc1ccc(N(NC(=O)OC(C)(C)C)C(=O)OC(C)(C)C)cc1OCCCCCCCC | 56
6 | CC(C)CC1=C/C(=C/c2ccc(-c3ccc(Br)cc3)o2)C(=O)O1 | 108
7 | CC1(C)C(O)[C@H](Cl)[C@@H]2CC[C@H]1O2 (stereo partly specified) | 72
8 | CC12CCC(/C(=C/N(Cl)c3ccccc3)C1=O)C2(C)C (stereo unspecified) | 103
9 | CC1=NN(c2ccccc2)C(=O)/C1=C/c1ccccc1O | 154
10 | CC1(C)CC(=O)c2c(cc3c(c2[Si](C)(C)C)-c2ccccc2OC3)C1 | 143
11 | CC1(C)CC(=O)c2c(cc3c(c2-c2ccccc2)-c2ccccc2OC3)C1 | 191
12 | CCOC(=O)/C(C#N)=C/c1ccc(-c2ccccc2Br)o1 | 124
13 | COc1ccc(C(=O)/C=C/c2ccc(-c3ccccc3[N+](=O)[O-])o2)cc1OC | 120
14 | COc1ccc(N/N=C(\C#N)c2nc(-c3ccc(C)cc3)cs2)cc1 | 146
15 | C[C@]12C/C(=C/O)C(=O)C[C@@H]1CC[C@@H]1[C@@H]2CC[C@@]2(C)[C@H]1CC[C@]2(C)O | 179
16 | Cc1ccc(-c2csc(/C(C#N)=N/Nc3cccc(C)c3)n2)cc1 | 133
17 | Cc1ccc(/C=C(\Oc2ccccc2)c2nc3ccccc3s2)cc1 | 163
18 | ClC1=C(Cl)[C@]2(Cl)C3C(Cl)C=CC3[C@@]1(Cl)C2(Cl)Cl (stereo partly specified) | 95.5
19 | O=C1CCCc2cc3c(c(-c4ccccc4)c21)-c1cc(Cl)ccc1OC3 | 185

Row | Compound | melting point [°C]
20 | ClC1=C(Cl)[C@]2(Cl)[C@H]3[C@H]([C@@H]4C=C[C@H]3C4)[C@@]1(Cl)C2(Cl)Cl | 104
21 | COc1ccccc1NC(=O)c1cnc(C(C)(C)C)c(Cl)n1 | 119
22 | CC(=O)C=Cc1oc2ccc(Cl)cc2c1-c1ccc(C)o1 | 119
23 | N=C(NCCCCCCNC(=N)NC(=N)Nc1ccc(Cl)cc1)NC(=N)Nc1ccc(Cl)cc1 | 134
24 | Cn1c(/C(C#N)=N/Nc2cccc(Cl)c2)nc2ccccc21 | 166
25 | N#C/C(=N/Nc1cc(Cl)ccc1Cl)c1nc(-c2ccccc2)cs1 | 134
26 | NC(=O)/C(=N\Nc1ccc(F)cc1)c1nc2ccccc2s1 | 159
27 | NCCNCCNCCNCCN | -40
28 | C=C1N(C(C)=O)c2ccccc2C1(C)C(=O)OC (stereo unspecified) | 60
29 | CC(=O)NC1C2CCC(C)(C1NC(C)=O)C2(C)C (stereo unspecified) | 250
30 | CC1(C)OC(C)(C(O)(Cc2ccccc2)Cc2ccccc2)CCC1C(=O)O (stereo unspecified) | 138
31 | CC1(CO)NC(C(=O)O)CC2c3ccccc3NC21 (stereo unspecified) | 260
32 | O=C(O)COCCNC(=O)C12CC3CC(CC(C3)C1)C2 | 122
33 | O=C(O)[C@@H]1C[C@@H]2C[C@H]1[C@@H](O)C2 | 161
34 | COC(=O)CC(C)CCC1C(C)(O)CCC2C(C)(C)CCCC21C (stereo unspecified) | 70
35 | COC(=O)c1cc(C)n(CN(Cn2nc(C(=O)OC)cc2C)c2ccccc2)n1 | 125
36 | CCCC1(O)CCC2C3CCC4CC(OC(C)=O)CCC4(C)C3CCC21C (stereo unspecified) | 121
37 | CC(=O)OCC1OC(C(N)=O)C(OC(C)=O)C(OC(C)=O)C1OC(C)=O (stereo unspecified) | 129
38 | CC(=O)OCC1OC(OC2C(COC(C)=O)OC(OC(C)=O)C(OC(C)=O)C2OC(C)=O)C(OC(C)=O)C(OC(C)=O)C1OC(C)=O (stereo unspecified) | 138

Row | Compound | melting point [°C]
39 | CCCCC(C)CC(O)C=CC1C(O)CC(=O)C1CCCCC=CC(=O)O (stereo unspecified) | 97
40 | CC12CCC3C(C1CCC2=O)C1(CC2CC(=O)CCC23C)OCCO1 (stereo unspecified) | 207
41 | CC(=O)Nc1ccc(C2=NN(c3ccccc3)C(=O)C2)cc1 | 210
42 | CC1(C)OC(=O)C(=Cc2ccc(-c3ccccc3)o2)C(=O)O1 | 143
43 | O=C1OC(c2ccccc2)=N/C1=C/c1ccc(-c2cccc([N+](=O)[O-])c2)o1 | 145
44 | CC1(C)C(=O)OC2=C(CC3C4CC=C5CC(O)CCC5(C)C4CCC23C)C1c1ccccc1 (stereo unspecified) | 233
45 | O=C1OCCOC(=O)C2CCCCC2C(=O)OCCOC(=O)C2CCCCC12 (stereo unspecified) | 140
46 | O=S(=O)(NS(=O)(=O)C(F)(F)F)C(F)(F)F | 51.5
47 | O=[N+]([O-])c1cc([N+](=O)[O-])c(C(Br)=Cc2ccccc2)cc1/C=C\c1ccccc1 | 175
48 | CC1(C)CC(=O)C(=NNc2ccccc2[N+](=O)[O-])C(=O)C1 | 140
49 | OC[C@H]1O[C@@H]2O[C@H]3[C@H](O)[C@@H](O)[C@@H](O[C@H]4[C@H](O)[C@@H](O)[C@@H](O[C@H]5[C@H](O)[C@@H](O)[C@@H](O[C@H]6[C@H](O)[C@@H](O)[C@@H](O[C@H]7[C@H](O)[C@@H](O)[C@@H](O[C@H]8[C@H](O)[C@@H](O)[C@@H](O[C@H]1[C@H](O)[C@H]2O)O[C@@H]8CO)O[C@@H]7CO)O[C@@H]6CO)O[C@@H]5CO)O[C@@H]4CO)O[C@@H]3CO | 290
50 | COC(=O)C1C(c2ccccc2)C(C#N)=C(C(SC)SC)C1(O)c1ccccc1 (stereo unspecified) | 165
51 | Cc1c(CSC2OCC(O)C(O)C2O)c(C)c(CSC2OCC(O)C(O)C2O)c(C)c1CSC1OCC(O)C(O)C1O (stereo unspecified) | 209
52 | O=C(O)CCN1C(=O)COc2ccc(Cl)cc21 | 148
53 | c1ccc(C/C(=N\Nc2ccccc2)c2ccc3ccccc3c2)cc1 | 166
54 | Clc1ncnc2sc3c(c12)CCC3 | 105
55 | COc1ccc(-c2csc(C(C#N)=Cc3ccco3)n2)cc1 | 116
56 | NC(N)=Nc1nc(CSCCC(N)=N[S+2](N)([O-])[O-])cs1 | 163

Further lines, results first:

Row | melting point [°C] | Compound
57 | 149 | COC1(CBr)OC(COC(=O)c2ccc(C)cc2)C(OC(=O)c2ccc(C)cc2)C1OC(=O)c1ccc(C)cc1 (stereo unspecified)
58 | 225 | Cc1c(C2(c3cc(Br)c(O)c(Br)c3C)OS(=O)(=O)c3ccccc32)cc(Br)c(O)c1Br
59 | 56 | CCCCCCCCCCOc1cc(N(NC(=O)OC(C)(C)C)C(=O)OC(C)(C)C)cc(OCCCCCCCCCC)c1OCCCCCCCCCC
60 | 51.5 | CCCCCCCCSc1cc(N(NC(=O)OC(C)(C)C)C(=O)OC(C)(C)C)cc(SCCCCCCCC)c1SCCCCCCCC
61 | 50 | CCCCCCCCCCCCSc1cc(N(NC(=O)OC(C)(C)C)C(=O)OC(C)(C)C)cc(SCCCCCCCCCCCC)c1SCCCCCCCCCCCC
62 | 108 | CN(C)CCOc1ccc(/C(=C(\CCCl)c2ccccc2)c2ccccc2)cc1
63 | 114 | CC[C@H]1OC(=O)[C@H](C)[C@@H](O[C@H]2C[C@@](C)(OC)[C@@H](O)[C@H](C)O2)[C@H](C)[C@@H](O[C@@H]2O[C@H](C)C[C@H](N(C)C)[C@H]2O)[C@](C)(O)C[C@@H](C)CN(C)[C@H](C)[C@@H](O)[C@]1(C)O
64 | 154 | COC(=O)/C=C(/C(=O)OC)N(Nc1ccccc1N=Nc1ccccc1)c1ccccc1
65 | 49 | COC1=C(OC)C(=O)C(C/C=C(\C)CC/C=C(\C)CC/C=C(\C)CC/C=C(\C)CC/C=C(\C)CC/C=C(\C)CC/C=C(\C)CC/C=C(\C)CC/C=C(\C)CCC=C(C)C)=C(C)C1=O
66 | 76 | CON(/C=C1\C(=O)C2(C)CCC1C2(C)C)c1ccccc1 (stereo unspecified)
67 | 159 | COc1ccc(/N=N/c2c(N)nn3c(C(F)(F)F)cc(C)nc23)cc1
68 | 145 | COc1ccc(C(=O)/C=C/c2ccc(-c3ccccc3OC)o2)cc1OC
69 | 99 | COc1ccccc1-c1ccc(/C=C/C(=O)c2ccccc2)o1
70 | 159 | COc1ccccc1/C=C(/C#N)c1nc2ccccc2s1
71 | 149 | COc1ccccc1N/N=C1\C(=O)N(CN2CCCCC2)N=C1C
72 | 123 | Cc1ccc(C(=O)/C=C/c2ccc(-c3ccccc3)o2)o1
73 | 112 | CCC(C)NC(=O)C(C(F)(F)F)C(F)(F)F (stereo unspecified)
74 | 161 | NC(=O)/C(=N\Nc1ccc(O)cc1)c1nc2ccccc2s1
75 | 159 | COc1ccc(N=C(CNc2ccc(OC)cc2)Nc2ccc(OC)cc2)cc1
76 | 163 | O/N=C/C1=C(/C=C/c2ccccc2)CCC1

Row | melting point [°C] | Compound
77 | 132 | CC(=O)CCc1oc2ccc(NC(C)=O)cc2c1-c1ccc(C)o1
78 | 137 | COC(=O)[C@]1(C(=O)O)[C@@H]2CCC[C@@H]21
79 | 300 | O=C(O)c1ccccc1-c1c2cc(Br)c(=O)c(Br)c-2oc2c(Br)c(O)c(Br)cc12
80 | 117 | COC(=O)c1ccc2c(c1)CC1(CCC(c3ccc(C(C)(C)C)cc3)CC1)C2 (stereo unspecified)
81 | 208 | CC(=O)OC1CCC2(C)C(C1)CC1(OCCO1)C1C2CCC2(C)C1CCC21OCCO1 (stereo unspecified)
82 | 198 | CC1(C(=O)OC2OC(CO)C(O)C(O)C2O)CCCC2(C)C3CCC4CC3(CCC12)CC4(CO)OC1OC(CO)C(O)C(O)C1O (stereo unspecified)
83 | 167 | CCCOC(=O)C1=C(C)NC(C)=C(C(=O)OCCC)C1c1cccc(OC)c1O
84 | 187 | COc1cc(O)c2c(=O)c(OC3OC(CO)C(O)C(O)C3OC3OC(C)C(O)C(O)C3O)c(-c3ccc(O)c(O)c3)oc2c1 (stereo unspecified)
85 | 338 | O=C1C=CC(=O)C2CC3=C(CC4=C(C3)CC3C(=O)C=CC(=O)C3C4)CC12 (stereo unspecified)
86 | 254 | N=C1c2ccccc2C(=O)N1c1n[nH]c2ncccc12
87 | 122 | Cc1ccccc1C1(C#N)Cc2ccccc2C(=O)O1 (stereo unspecified)
88 | 143 | CCC1C2=C(OC(=O)C1(C)C)c1ccc(OC)cc1CC2 (stereo unspecified)
89 | 230 | O=S(=O)(O)CCCNC(CO)(CO)CO
90 | 83.8 | Cc1ccc(Sc2ccccc2NS(=O)(=O)c2ccc(C)cc2)cc1
91 | 159 | CC1(C)c2ccccc2N(Cc2ccccc2)C12C=Cc1cc([N+](=O)[O-])ccc1O2 (stereo unspecified)
92 | 154 | CC(=O)C(=Cc1ccc(-c2cccc([N+](=O)[O-])c2)o1)C(C)=O
93 | 156 | Oc1ccccc1/C=N/n1c(S)nnc1C(F)(F)F
94 | 87 | CC1(C)OC(CP(c2ccccc2)c2ccccc2)C(CP(c2ccccc2)c2ccccc2)O1 (stereo unspecified)
95 | 143 | CCOC(=O)c1c(SC)n[nH]c1N
96 | 262 | CCOC(=O)c1sc2sc(C#N)c(N)c2c1N
